ChEMBL document CHEMBL1201862, “PubChem BioAssay data set” (2004)
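Interpolation was linear, between the two tested concentrations surrounding the appropriate level; five concentrations were tested over 48 hours in 96-well plates. GI50: concentration for 50% inhibition of growth.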 The source made the active and inactive calls. Cut-off read from the data, not from the text of the source: active = GI50 up to about 1.1 µM and inactive = higher.

How the values were obtained:
Assay in all cases: NCI-60 cell line screen, 48 h
[1] = test system: A549
[2] = test system: SK-MEL-2
[3] = test system: HCC 2998
[4] = test system: M14
[5] = test system: KM12
[6] = test system: NCI-H460
[7] = test system: SF-268
[8] = test system: UO-31
[9] = test system: K562
[10] = test system: ACHN
[11] = test system: SW-620
[12] = test system: RPMI-8226
[13] = test system: DMS-273
[14] = test system: HCT-116
[15] = test system: OVCAR-8
[16] = test system: IGROV-1
[17] = test system: TK-10

Measured: GI50

NC1CCCCC1.O=C(O)C1(P(=O)(O)O)CC1
inactive: [1] > 100 µM | [2] > 100 µM | [3] > 100 µM | [4] 25.5 µM | [5] > 100 µM | [6] > 100 µM | [7] > 100 µM | [8] > 100 µM | [9] > 100 µM | [10] > 100 µM | [11] > 100 µM | [12] > 100 µM | [13] > 100 µM | [14] > 100 µM | [15] > 100 µM | [16] > 100 µM | [17] > 100 µM

CC(=O)OC1COC(n2c(=S)n(-c3ccc(C)cc3)c(=O)c3ccccc32)C(OC(C)=O)C1OC(C)=O (stereo not drawn)
inactive: [1] > 100 µM | [2] > 100 µM | [3] > 100 µM | [4] > 100 µM | [5] > 100 µM | [6] > 100 µM | [7] > 100 µM | [8] > 100 µM | [10] > 100 µM | [11] > 100 µM | [12] 47.5 µM | [13] > 100 µM | [14] > 100 µM | [15] 68.2 µM | [16] > 100 µM

O=S(=O)(N/N=C/c1cccc(/C=N/NS(=O)(=O)c2ccccc2)c1)c1ccccc1
inactive: [1] 79.6 µM | [2] > 100 µM | [3] > 100 µM | [4] > 100 µM | [5] 58.6 µM | [6] 68.7 µM | [7] > 100 µM | [8] 46.7 µM | [9] 60.4 µM | [10] 68.7 µM | [12] 70.8 µM | [13] > 100 µM | [14] 83.9 µM | [15] 55.5 µM | [16] 69.2 µM | [17] 47.8 µM

Cc1ccccc1NC(=O)C(=O)Cc1nc2ccccc2s1
inactive: [1] > 100 µM | [2] > 100 µM | [3] > 100 µM | [4] > 100 µM | [5] > 100 µM | [6] > 100 µM | [7] > 100 µM | [8] > 100 µM | [9] > 100 µM | [10] > 100 µM | [11] > 100 µM | [13] > 100 µM | [14] > 100 µM | [15] > 100 µM | [16] > 100 µM | [17] > 100 µM

Cc1[nH]c2ccccc2c1-c1n[nH]c(=O)c2ccccc12
inactive: [1] 24.6 µM | [2] 31.7 µM | [3] 30.4 µM | [4] 21 µM | [5] 11.3 µM | [6] 22.9 µM | [8] 17.3 µM | [9] 5.25 µM | [10] 25.7 µM | [11] 16.1 µM | [12] 20.8 µM | [13] 8.79 µM | [14] 13.3 µM | [15] 32.5 µM | [16] 31.5 µM | [17] 37.1 µM

Cc1[nH]c2ccccc2c1C1Cc2ccccc2N1C(=O)/C(Cl)=C/c1ccccc1 (stereo not drawn)
inactive: [1] 88.1 µM | [2] > 91 µM | [3] > 100 µM | [4] > 100 µM | [5] > 100 µM | [6] > 100 µM | [7] > 78.9 µM | [8] 16.3 µM | [9] 70.3 µM | [10] 98.9 µM | [11] > 100 µM | [12] > 72.6 µM | [13] > 100 µM | [14] 36.5 µM | [15] > 100 µM | [16] 61.1 µM | [17] > 73.3 µM

S=C1ON=C(c2ccccc2)/C1=C/Nc1ccccc1
inactive: [1] > 100 µM | [2] > 100 µM | [3] > 100 µM | [4] > 100 µM | [5] 23.2 µM | [6] > 100 µM | [7] > 100 µM | [8] > 100 µM | [9] 9.98 µM | [10] 47.1 µM | [11] > 100 µM | [12] > 100 µM | [13] > 100 µM | [15] > 100 µM | [16] > 100 µM | [17] > 100 µM

O=c1c(C(c2ccc([N+](=O)[O-])cc2)c2c(O)c3ccccc3n(-c3ccccc3)c2=O)c(O)c2ccccc2n1-c1ccccc1
inactive: [1] 15.5 µM | [2] 14.5 µM | [3] 12.4 µM | [5] 17.7 µM | [7] 15.3 µM | [8] 8.51 µM | [9] 16.6 µM | [10] 13.9 µM | [11] 18.4 µM | [12] 12.2 µM | [13] 22.9 µM | [14] 18.7 µM | [15] 14.9 µM | [16] 6.56 µM | [17] 44 µM

CC(C)C(C(=O)O)N(CC1(O)OCC(O)C(O)C1O)N=O (stereo not drawn)
inactive: [1] > 100 µM | [2] > 100 µM | [3] > 100 µM | [4] > 100 µM | [5] > 100 µM | [6] > 100 µM | [8] > 100 µM | [9] > 100 µM | [10] > 100 µM | [11] > 100 µM | [12] > 100 µM | [13] > 100 µM | [14] > 100 µM | [15] > 100 µM | [16] > 100 µM | [17] > 100 µM

Cc1cc(N(CCC#N)S(=O)(=O)c2ccccc2)ccc1C=O
inactive: [1] > 100 µM | [2] > 100 µM | [3] > 100 µM | [4] > 100 µM | [5] > 100 µM | [6] > 100 µM | [7] > 100 µM | [8] > 100 µM | [9] > 100 µM | [10] > 100 µM | [11] > 100 µM | [12] > 100 µM | [13] > 100 µM | [14] > 100 µM | [15] > 100 µM | [16] > 100 µM

Clc1ccc2c(c1)-c1c3c(nn1-c1ccccc1)-c1ccccc1SC3O2 (stereo not drawn)
inactive: [1] > 100 µM | [2] > 100 µM | [3] > 100 µM | [5] > 100 µM | [6] > 100 µM | [7] > 100 µM | [8] > 100 µM | [9] 75.3 µM | [10] > 100 µM | [11] > 100 µM | [12] > 100 µM | [13] > 100 µM | [14] > 100 µM | [15] > 100 µM | [16] > 100 µM | [17] > 100 µM

CC1C=CC(C)C2(O)C(=O)NC(O)C12 (stereo not drawn)
inactive: [1] > 100 µM | [2] > 100 µM | [3] > 100 µM | [4] > 100 µM | [5] > 100 µM | [6] > 100 µM | [7] > 100 µM | [8] > 100 µM | [9] > 100 µM | [10] > 100 µM | [11] > 100 µM | [12] > 100 µM | [13] > 100 µM | [14] > 100 µM | [15] > 100 µM | [16] > 100 µM | [17] > 100 µM
